Data on one compound can be found in US9234046B2, “Treatment of renal disease” (OPSONA Therapeutics Ltd, priority 2007, dated 2016).

This assay concerns mice. The assay can be described thus: Warm renal ischemia/reperfusion repeat study Step 2, 25 minutes ischemia (Example 3). The following applies: for MDA level as an index of lipid peroxidation / uremia (urea) / MPO activity as an index of neutrophil accumulation / creatininemia (creatinine): individual data and Mean ± SEM, n=6. It is filed as in vivo. How it is done:
Nine Experimental groups were used in Step 2: • 1) Sham-operated mice sacrificed 1 day after surgery, n=6, • 2) PBS-vehicle-treated mice 15 minutes before ischemia/1 day reperfusion, n=6, • 3) Isotype control antibody 10 mg/kg-treated mice 15 minutes before 25 minutes ischemia/1 day reperfusion, n=6 (The isotype control antibody is mouse IgG1 isotype control purchased from RnD systems (catalogue number MAB002), this isotype control antibody having binding specificity for Keyhole Limpet Hemocyanin (KLH) antigen), • 4) OPN301 anti-TLR2 monoclonal antibody 10 mg/kg-treated mice 15 minutes before 25 minutes ischemia/1 day reperfusion, n=6, • 5) Pargyline 6 mg/kg-treated mice 15 minutes before 25 minutes ischemia/1 day reperfusion, n=6, • 6) PBS-vehicle-treated mice 15 minutes before 25 min ischemia/5 day reperfusion, n=6, • 7) Isotype control antibody (RnD Systems catalogue Number MAB002) 10 mg/kg-treated mice 15 minutes before 25 minutes ischemia/5 day reperfusion, n=6, • 8) OPN301 anti-TLR2 monoclonal antibody 10 mg/kg-treated mice 15 minutes before 25 minutes ischemia/5 day reperfusion, n=6, • 9) Pargyline 6 mg/kg-treated mice 15 minutes before 25 minutes ischemia/5 day reperfusion, n=6, Experimental Warm Renal Ischemia/Reperfusion (Step 1 and 2)
Briefly, mice were anesthetized with 10 μl/g of a mix of 2.5 ml ketamine (Ketalar 50 mg/mL, Centravet; Lapalisse, France), 0.5 ml xylazine (Rompun 2.5%, Centravet; Lapalisse, France), and 7 mL NaCl 0.9% (Centravet; Lapalisse, France). During surgery, animals were set on a 35° C. hotplate.
After a 2 millimetre incision was made at the right jugular level, jugular vein was exposed for a 1 minute-intravenous injection (insulin syringe; VWR, Fontenay-sous-Bois, France) of 70 μl of the considered treatment then closed after haemostasis (5/0 Ethicrin thread, Ethicon; Auneau, France). In Step 1, no jugular injection was performed.
Three centimetre midline incisions were made to abdominal cutaneous followed by muscular incisions were performed; renal pedicles were exposed and clamped for 25 minutes using microaneurysm clamps (AREX; Palaiseau, France). At the time of clamp installation and removal, kidneys were inspected for blood flow arrest and restoration, respectively. During renal ischemia duration, the abdomen was wrapped up to avoid loss of heat and be kept in relative intra-abdominal pressure. At the time of abdomen closing in 2 layers (5/0 Ethicrin thread, Ethicon; Auneau, France), mice were supplemented with 1 mL sterile NaCl (sodium chloride) 0.9% to maintain fluid balance and volume status. Finally, all mice received an intramuscular injection of 10 mg/kg profenid 50 mg/mL (Centravet; Lapalisse, France) for analgesic purpose then allowed to recover from surgery for 12 hours at 32° C. in a ventilated stove. Food and water were given ad libitum. Sham-operated mice underwent the same procedure without clamping.
At the end of the protocol, mice were sacrificed by lethal injection of pentobarbital (100 μL/10 g, Ceva Sante Animale; Libourne, France) 1 and 5 days after surgery.
Experimental methodology such as urea, creatinine, MPO and MDA as described in Example 2.
The results were given as mean values±standard error of the mean (SEM). A one-way ANOVA was used for comparison of within-group difference followed by a Newman-Keuls test for comparison of all pairs of columns (GraphPad Prism, San Diego, USA). A p<0.05 was accepted for statistical significance.

Several values for one entry are separate records, joined by “and”; a condition that tells them apart may be missing. Equal entries are not always repeated.

With `C#CCN(C)Cc1ccccc1` [Pargyline], the “effect on renal function impairment induced by ischemic injury, in words” value (1 day after 25 minute ischemia) is on record as “without effects”. Besides, the “MDA level as an index of lipid peroxidation” value reads like this: (Day 1 after 25 minute ischemia, PBS-vehicle 0.153 ± 0.014) 0.285 nmol/mg proteins and 0.163 nmol/mg proteins and 0.212 nmol/mg proteins and 0.242 nmol/mg proteins and 0.249 nmol/mg proteins and 0.202 nmol/mg proteins; (Day 1 after 25 minute ischemia, PBS-vehicle 0.153 ± 0.014, mean) 0.225 ± 0.017 nmol/mg proteins; (Day 5 after 25 minute ischemia, PBS-vehicle 0.188 ± 0.019) 0.290 nmol/mg proteins and 0.231 nmol/mg proteins and 0.218 nmol/mg proteins and 0.261 nmol/mg proteins and 0.234 nmol/mg proteins and 0.299 nmol/mg proteins; (Day 5 after 25 minute ischemia, PBS-vehicle 0.188 ± 0.019, mean) 0.255 ± 0.014 nmol/mg proteins. Besides, the “uremia (urea)” value is, setting by setting: (Day 1 after 25 minute ischemia, PBS-vehicle 31.05 ± 5.70) 47.99 mmol/L and 48.92 mmol/L and 40.01 mmol/L and 27.83 mmol/L and 19.35 mmol/L and 18.22 mmol/L; (Day 1 after 25 minute ischemia, PBS-vehicle 31.05 ± 5.70, listed as pargyline) 33.72 ± 5.64 mmol/L; (Day 1 after 25 minute ischemia, PBS-vehicle 31.05 ± 5.70, mean) 33.72 ± 5.64 mmol/L; (Day 5 after 25 minute ischemia, PBS-vehicle 8.78 ± 0.72) 7.63 mmol/L and 9.48 mmol/L and 7.37 mmol/L and 7.53 mmol/L and 8.78 mmol/L and 7.29 mmol/L; (Day 5 after 25 minute ischemia, PBS-vehicle 8.78 ± 0.72, mean) 8.01 ± 0.37 mmol/L. Further, the “MPO activity as an index of neutrophil accumulation” value reads like this: (Day 1 after 25 minute ischemia, PBS-vehicle 80.45 ± 8.66) 57.37±5.78 U MPO/mg protein and 47.9 U MPO/mg protein and 52.7 U MPO/mg protein and 68.7 U MPO/mg protein and 80.7 U MPO/mg protein and 48.8 U MPO/mg protein and 45.4 U MPO/mg protein; (Day 5 after 25 minute ischemia, PBS-vehicle 54.95 ± 0.62) 44.4 U MPO/mg protein and 49.2 U MPO/mg protein and 47.6 U MPO/mg protein and 42.2 U MPO/mg protein and 46.3 U MPO/mg protein and 49.6 U MPO/mg protein; (Day 5 after 25 minute ischemia, PBS-vehicle 54.95 ± 0.62, mean) 46.55 ± 1.17 U MPO/mg protein. For the same compound, the “creatininemia (creatinine)” value (Day 1 after 25 minute ischemia, PBS-vehicle 99.97 ± 25.64) is 185.9 µmol/L and 150.7 µmol/L and 134.1 µmol/L and 77.6 µmol/L and 53.3 µmol/L and 26.6 µmol/L; the “creatininemia (creatinine)” value (Day 1 after 25 minute ischemia, PBS-vehicle 99.97 ± 25.64, listed as pargyline) came out at 104.7 ± 25.20 µmol/L; the “creatininemia (creatinine)” value (Day 1 after 25 minute ischemia, PBS-vehicle 99.97 ± 25.64, mean) worked out at 104.7 ± 25.20 µmol/L; the “creatininemia (creatinine)” value (Day 5 after 25 minute ischemia, PBS-vehicle 21.97 ± 1.84) was 16 μmol/L and 27.2 μmol/L and 30.7 μmol/L and 19.2 μmol/L and 22.9 μmol/L (2×); the “creatininemia (creatinine)” value (Day 5 after 25 minute ischemia, PBS-vehicle 21.97 ± 1.84, mean) stood at 23.15 ± 2.16 µmol/L.
